Reference: paper PMC6348423, “Rapid Mapping of Protein Interactions Using Tag‐Transfer Photocrosslinkers” (Angewandte Chemie (International Ed. in English), 2018)
Ends that are not written are not given here. Peptide text beside a SMILES is read from it. * marks the point of attachment. MTS‑TFMD = trifluoromethyl phenyl diazirine photocrosslinker tag, disulfide-linked to Cys via MTS; X2 = CC1(CCS*)N=N1

B1: OmpA: E. coli β-barrel outer membrane protein, substrate of the periplasmic chaperone Skp (protein, UniProt P0A910 22-346, looked up)
Outer membrane protein A: APKDNTWYTGAKLGWSQYHDTGFINNNGPTHENQLGAGAFGGYQVNPYVGFEMGYDWLGRMPYKGSVENGAYKAQGVQLTAKLGYPITDDLDIYTRLGGMVWRADTKSNVYGKNHDTGVSPVFAGGVEYAITPEIATRLEYQWTNNIGDAHTIGTRPDNGMLSLGVSYRFGQGEAAPVVAPAPAPAPEVQTKHFTLKSDVLFNFNKATLKPEGQAALDQLYSQLSNLDPKDGSVVVLGYTDRIGSDAYNQGLSERRAQSVVDYLISKGIPADKISARGMGESNPVTGNTCDNVKQRAALIDCLAPDRRVEIEVKGIKDVVTQPQA

Legend:
MCL-1 = target: T1, MCL-1 (Homo sapiens, UniProt Q07820); experiment: Photo-crosslinking of labelled BID80-102 peptides to MCL-1, SDS-PAGE band intensity; conditions: 20 μM labelled peptide + 20 μM MCL-1, TBS pH 7.6, 365 nm UV LED, 1 min, SDS-PAGE band intensity of crosslinked vs non-crosslinked MCL-1, value ± SD of three repeats
T1 construct: made in house
T1 sequence (Q07820 whole entry): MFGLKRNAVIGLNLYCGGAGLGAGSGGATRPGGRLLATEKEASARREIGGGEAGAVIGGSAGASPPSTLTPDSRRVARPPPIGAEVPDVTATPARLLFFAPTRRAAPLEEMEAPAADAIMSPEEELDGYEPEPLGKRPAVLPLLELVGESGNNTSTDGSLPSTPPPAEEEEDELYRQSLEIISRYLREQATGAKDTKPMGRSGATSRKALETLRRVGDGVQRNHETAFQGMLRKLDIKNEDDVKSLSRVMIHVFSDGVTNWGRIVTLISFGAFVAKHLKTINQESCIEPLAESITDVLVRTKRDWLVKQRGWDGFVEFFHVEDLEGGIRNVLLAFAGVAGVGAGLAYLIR
Procedure: Cross-linking experiments
For all irradiation methods, samples were prepared in the following way. For crosslinking of MCL-1/BID80-102, 20 μL of a solution containing MTS-diazirine or MTS-TFMD labelled BID80-102 peptide (20 μM) and MCL-1 (20 μM) in buffer 50 mM Tris-HCl, 150 mM NaCl (TBS) pH 7.6 was prepared. […]
This was then placed under a covered LF-206.LS 6 W 365 nm lamp (Uvitec) at a distance of 12 mm from the source for different times up to 30 min. For UV LED chip experiments, acrylic chip chambers were washed with TBS pH 7.6 buffer and 33 µL of sample was added. These were then clamped into the chip holder and irradiated with the 365 nm LED for up to 30 s. A pipette was used to remove the sample from the chip via the lower filling hole. For UV LED tube experiments, 30-130 µL of sample was added to a thin-walled PCR tube and placed inside a 0.5 mL microfuge tube which itself was in a 1.5 mL microfuge tube that had been wrapped in aluminium foil (to reflect the UV irradiation within the containers). Samples were irradiated with the 365 nm LED for 30 s. To crosslink MCL-1 BID80-102, samples were irradiated using this apparatus for 1 min.
Separation and enrichment of cross-linked products
To separate and/or enrich crosslinked samples three methods were used as described in the main text.
Table S1: Affinity (EC50) of labelled BID80-102 peptides to MCL-1 as determined by competition fluorescence anisotropy assay. Crosslinking efficiency of labelled BID80-102 peptides to MCL-1 based on the SDS-PAGE band intensity of crosslinked and non-crosslinked […]
The values and standard deviations are results of three repeats. n.d = not determined as binding was too weak to enable an accurate fit to be obtained.
BID peptide EC50 for affinity to MCL-1 (nM) Crosslinked Mcl-1 (%)

Skp = conditions: read-out: KD of Skp/OmpA complex; cited from earlier work

Row | Molecule | Crosslinked Mcl-1 (crosslinking efficiency) (MCL-1; SD) [%] | also measured
1 | CC[C@H](C)[C@H](NC(=O)[C@H](CC(N)=O)NC(=O)[C@H](CCCNC(=N)N)NC(=O)[C@@H](NC(=O)[C@@H](NC(=O)[C@H](CC(=O)O)NC(=O)[C@H](CCC(=O)O)NC(C)=O)[C@@H](C)CC)[C@@H](C)CC)C(=O)N[C@@H](C)C(=O)N[C@@H](CCCNC(=N)N)C(=O)N[C@@H](Cc1c[nH]cn1)C(=O)N[C@@H](CC(C)C)C(=O)N[C@@H](C)C(=O)N[C@@H](CCC(N)=O)C(=O)N[C@H](C(=O)NCC(=O)N[C@@H](CC(=O)O)C(=O)N[C@@H](CO)C(=O)N[C@@H](CSSCCC1(C)N=N1)C(=O)N[C@@H](CC(=O)O)C(=O)N[C@@H](CCCNC(=N)N)C(=O)N[C@@H](CO)C(=O)N[C@H](C(=O)N[C@@H](Cc1c[nH]c2ccccc12)C(N)=O)[C@@H](C)CC)C(C)C [MTS-diazirine labelled M97C] (Ac-EDIIRNIARHLAQVGDSC(X2)DRSIW-NH2) | 41 ± 6 | 
2 | CC[C@H](C)[C@H](NC(=O)[C@H](CC(N)=O)NC(=O)[C@H](CCCNC(=N)N)NC(=O)[C@@H](NC(=O)[C@@H](NC(=O)[C@H](CC(=O)O)NC(=O)[C@H](CCC(=O)O)NC(C)=O)[C@@H](C)CC)[C@@H](C)CC)C(=O)N[C@@H](C)C(=O)N[C@@H](CCCNC(=N)N)C(=O)N[C@@H](Cc1c[nH]cn1)C(=O)N[C@@H](CC(C)C)C(=O)N[C@@H](C)C(=O)N[C@@H](CCC(N)=O)C(=O)N[C@@H](CSSCCC1(C)N=N1)C(=O)NCC(=O)N[C@@H](CC(=O)O)C(=O)N[C@@H](CO)C(=O)N[C@@H](CCSC)C(=O)N[C@@H](CC(=O)O)C(=O)N[C@@H](CCCNC(=N)N)C(=O)N[C@@H](CO)C(=O)N[C@H](C(=O)N[C@@H](Cc1c[nH]c2ccccc12)C(N)=O)[C@@H](C)CC [MTS-diazirine labelled V93C] (Ac-EDIIRNIARHLAQC(X2)GDSMDRSIW-NH2) | 9 ± 3 | 
3 | CC[C@H](C)[C@H](NC(=O)[C@H](CC(N)=O)NC(=O)[C@H](CCCNC(=N)N)NC(=O)[C@@H](NC(=O)[C@@H](NC(=O)[C@H](CC(=O)O)NC(=O)[C@H](CCC(=O)O)NC(C)=O)[C@@H](C)CC)[C@@H](C)CC)C(=O)N[C@@H](C)C(=O)N[C@@H](CCCNC(=N)N)C(=O)N[C@@H](Cc1c[nH]cn1)C(=O)N[C@@H](CC(C)C)C(=O)N[C@@H](C)C(=O)N[C@@H](CCC(N)=O)C(=O)N[C@H](C(=O)NCC(=O)N[C@@H](CC(=O)O)C(=O)N[C@@H](CO)C(=O)N[C@@H](CCSC)C(=O)N[C@@H](CC(=O)O)C(=O)N[C@@H](CCCNC(=N)N)C(=O)N[C@@H](CO)C(=O)N[C@H](C(=O)N[C@@H](Cc1c[nH]c2ccccc12)C(N)=O)[C@@H](C)CC)C(C)C [WT, reference compound] |  | Crosslinked Mcl-1 (crosslinking efficiency) (MCL-1): 0%
4 | MTS-TMFD labelled V93C: single Cys variant V93C of BID80–102 tagged with MTS-TFMD (EDIIRNIARHLAQC(MTS‑TFMD)GDSMDRSIP; UniProt P55957 80-102, looked up, fragment V93C) | 40 ± 8 | 
5 | B1 |  | Kd (Skp): 22 ± 16 nM
